Source: ChEMBL document CHEMBL2346515, “Discovery of 4-alkylamino-7-aryl-3-cyanoquinoline LRRK2 kinase inhibitors” (Bioorg Med Chem Lett, 2013)

Assays:
[1] = biological target: Cyclin-dependent kinase 2/cyclin A (Homo sapiens) (UniProt P24941+P20248+P78396); test: Inhibition of CDK2/cyclin A (unknown origin) at 10 uM by single point assay; format: protein-complex assay
[2] = biological target: T1, Interleukin-1 receptor-associated kinase 4 (Homo sapiens) (UniProt Q9NWZ3); test: Inhibition of IRAK4 (unknown origin) at 10 uM by single point assay
T1 sequence (whole entry): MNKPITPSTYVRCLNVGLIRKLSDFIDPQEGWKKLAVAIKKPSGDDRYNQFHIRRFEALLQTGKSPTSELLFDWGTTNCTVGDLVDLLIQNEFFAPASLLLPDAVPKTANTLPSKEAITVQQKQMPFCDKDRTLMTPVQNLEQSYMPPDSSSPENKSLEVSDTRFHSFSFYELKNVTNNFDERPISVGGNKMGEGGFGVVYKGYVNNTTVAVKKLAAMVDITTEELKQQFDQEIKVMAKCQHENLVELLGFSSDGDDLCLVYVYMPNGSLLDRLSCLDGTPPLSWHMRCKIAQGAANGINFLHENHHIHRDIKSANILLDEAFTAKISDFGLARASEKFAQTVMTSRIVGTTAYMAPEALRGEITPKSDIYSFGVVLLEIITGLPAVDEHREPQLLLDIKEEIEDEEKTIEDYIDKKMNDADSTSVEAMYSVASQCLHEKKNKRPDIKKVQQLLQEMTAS

[3] = biological target: Tyrosine-protein kinase SYK (Homo sapiens) (UniProt P43405); test: Inhibition of SYK (unknown origin) at 10 uM by single point assay
[4] = biological target: T2, Mitogen-activated protein kinase kinase kinase 7 (Homo sapiens) (UniProt O43318); test: Inhibition of MAP3K7 (unknown origin) at 10 uM by single point assay
T2 sequence (whole entry): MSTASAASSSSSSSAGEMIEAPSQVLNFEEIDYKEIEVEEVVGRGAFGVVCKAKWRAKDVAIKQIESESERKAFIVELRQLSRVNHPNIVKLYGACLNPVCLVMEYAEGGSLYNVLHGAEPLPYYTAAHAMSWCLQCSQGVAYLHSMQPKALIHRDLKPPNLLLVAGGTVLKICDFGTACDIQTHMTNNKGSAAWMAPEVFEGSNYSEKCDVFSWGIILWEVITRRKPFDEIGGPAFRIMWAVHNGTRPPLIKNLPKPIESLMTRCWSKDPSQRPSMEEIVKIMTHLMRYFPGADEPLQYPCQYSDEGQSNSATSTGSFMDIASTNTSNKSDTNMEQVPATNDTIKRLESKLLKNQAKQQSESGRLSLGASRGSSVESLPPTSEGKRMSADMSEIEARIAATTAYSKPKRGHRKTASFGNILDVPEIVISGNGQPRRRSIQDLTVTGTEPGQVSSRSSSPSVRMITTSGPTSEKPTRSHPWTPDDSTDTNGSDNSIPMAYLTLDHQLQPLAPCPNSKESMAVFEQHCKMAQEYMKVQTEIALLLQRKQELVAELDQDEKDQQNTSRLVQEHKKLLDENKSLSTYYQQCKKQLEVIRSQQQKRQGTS

[5] = biological target: Serine/threonine-protein kinase PLK2 (Homo sapiens) (UniProt Q9NYY3); test: Inhibition of PLK2 (unknown origin) at 10 uM by single point assay
[6] = biological target: Insulin receptor (Homo sapiens) (UniProt P06213); test: Inhibition of INSR (unknown origin) at 10 uM by single point assay
Sequence of Insulin receptor (Homo sapiens) (P06213 28-758 limits assumed): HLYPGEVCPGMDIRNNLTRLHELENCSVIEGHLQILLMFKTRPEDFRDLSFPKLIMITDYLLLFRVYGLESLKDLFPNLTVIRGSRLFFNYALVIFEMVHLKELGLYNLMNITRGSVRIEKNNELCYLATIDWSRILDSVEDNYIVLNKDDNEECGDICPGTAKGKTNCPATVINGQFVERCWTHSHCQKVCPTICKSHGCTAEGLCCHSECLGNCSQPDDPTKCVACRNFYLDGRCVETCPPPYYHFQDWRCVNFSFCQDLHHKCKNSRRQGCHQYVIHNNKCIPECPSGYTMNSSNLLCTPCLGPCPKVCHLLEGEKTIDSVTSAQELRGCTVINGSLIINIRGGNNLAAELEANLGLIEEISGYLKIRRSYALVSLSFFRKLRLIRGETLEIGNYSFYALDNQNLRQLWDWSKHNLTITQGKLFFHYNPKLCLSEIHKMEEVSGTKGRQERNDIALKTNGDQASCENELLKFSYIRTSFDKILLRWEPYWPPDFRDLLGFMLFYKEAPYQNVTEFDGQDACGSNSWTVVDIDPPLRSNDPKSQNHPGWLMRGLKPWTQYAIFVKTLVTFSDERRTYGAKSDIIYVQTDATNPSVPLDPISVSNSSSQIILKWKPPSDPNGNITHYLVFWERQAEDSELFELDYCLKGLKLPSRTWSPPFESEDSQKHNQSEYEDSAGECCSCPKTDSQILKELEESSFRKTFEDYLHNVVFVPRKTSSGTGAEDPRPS
Sequence of Insulin receptor (Homo sapiens) (P06213 763-1382 limits assumed): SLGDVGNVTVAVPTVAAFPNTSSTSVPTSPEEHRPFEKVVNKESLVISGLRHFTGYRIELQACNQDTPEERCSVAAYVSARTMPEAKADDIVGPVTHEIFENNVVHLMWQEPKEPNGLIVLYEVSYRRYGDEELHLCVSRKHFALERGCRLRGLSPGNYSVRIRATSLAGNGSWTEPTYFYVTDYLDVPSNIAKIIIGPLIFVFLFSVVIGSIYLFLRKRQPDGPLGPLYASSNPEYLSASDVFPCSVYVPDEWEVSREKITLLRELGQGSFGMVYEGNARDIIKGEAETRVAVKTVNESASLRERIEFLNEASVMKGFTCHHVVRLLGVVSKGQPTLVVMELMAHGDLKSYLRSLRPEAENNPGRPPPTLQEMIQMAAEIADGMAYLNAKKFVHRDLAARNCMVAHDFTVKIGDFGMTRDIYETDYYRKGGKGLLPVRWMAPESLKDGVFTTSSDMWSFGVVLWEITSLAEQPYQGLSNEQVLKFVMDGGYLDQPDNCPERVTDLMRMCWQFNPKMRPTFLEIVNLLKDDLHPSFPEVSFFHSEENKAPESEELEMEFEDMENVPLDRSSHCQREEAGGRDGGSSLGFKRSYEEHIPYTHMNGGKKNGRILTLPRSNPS

[7] = biological target: Receptor-interacting serine/threonine-protein kinase 2 (Homo sapiens) (UniProt O43353); test: Inhibition of RIPK2 (unknown origin) at 10 uM by single point assay
Sequence of Receptor-interacting serine/threonine-protein kinase 2 (Homo sapiens) (O43353 whole entry): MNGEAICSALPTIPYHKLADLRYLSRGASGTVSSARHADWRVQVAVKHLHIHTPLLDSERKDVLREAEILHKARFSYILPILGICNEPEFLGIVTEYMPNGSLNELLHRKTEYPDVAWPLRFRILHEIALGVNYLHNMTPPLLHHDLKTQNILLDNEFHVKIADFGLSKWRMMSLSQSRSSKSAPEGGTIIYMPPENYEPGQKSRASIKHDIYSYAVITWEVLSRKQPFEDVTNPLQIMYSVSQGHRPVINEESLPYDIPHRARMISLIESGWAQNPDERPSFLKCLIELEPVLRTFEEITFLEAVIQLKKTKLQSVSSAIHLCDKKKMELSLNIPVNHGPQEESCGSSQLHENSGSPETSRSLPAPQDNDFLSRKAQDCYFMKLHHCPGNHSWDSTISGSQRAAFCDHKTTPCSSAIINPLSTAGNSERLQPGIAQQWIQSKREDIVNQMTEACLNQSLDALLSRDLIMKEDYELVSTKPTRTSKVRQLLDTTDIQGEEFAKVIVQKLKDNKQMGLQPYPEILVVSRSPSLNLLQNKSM

[8] = biological target: Rho-associated protein kinase 2 (Homo sapiens) (UniProt O75116); test: Inhibition of ROCK2 (unknown origin) at 10 uM by single point assay
Sequence of Rho-associated protein kinase 2 (Homo sapiens) (O75116 whole entry, looked up): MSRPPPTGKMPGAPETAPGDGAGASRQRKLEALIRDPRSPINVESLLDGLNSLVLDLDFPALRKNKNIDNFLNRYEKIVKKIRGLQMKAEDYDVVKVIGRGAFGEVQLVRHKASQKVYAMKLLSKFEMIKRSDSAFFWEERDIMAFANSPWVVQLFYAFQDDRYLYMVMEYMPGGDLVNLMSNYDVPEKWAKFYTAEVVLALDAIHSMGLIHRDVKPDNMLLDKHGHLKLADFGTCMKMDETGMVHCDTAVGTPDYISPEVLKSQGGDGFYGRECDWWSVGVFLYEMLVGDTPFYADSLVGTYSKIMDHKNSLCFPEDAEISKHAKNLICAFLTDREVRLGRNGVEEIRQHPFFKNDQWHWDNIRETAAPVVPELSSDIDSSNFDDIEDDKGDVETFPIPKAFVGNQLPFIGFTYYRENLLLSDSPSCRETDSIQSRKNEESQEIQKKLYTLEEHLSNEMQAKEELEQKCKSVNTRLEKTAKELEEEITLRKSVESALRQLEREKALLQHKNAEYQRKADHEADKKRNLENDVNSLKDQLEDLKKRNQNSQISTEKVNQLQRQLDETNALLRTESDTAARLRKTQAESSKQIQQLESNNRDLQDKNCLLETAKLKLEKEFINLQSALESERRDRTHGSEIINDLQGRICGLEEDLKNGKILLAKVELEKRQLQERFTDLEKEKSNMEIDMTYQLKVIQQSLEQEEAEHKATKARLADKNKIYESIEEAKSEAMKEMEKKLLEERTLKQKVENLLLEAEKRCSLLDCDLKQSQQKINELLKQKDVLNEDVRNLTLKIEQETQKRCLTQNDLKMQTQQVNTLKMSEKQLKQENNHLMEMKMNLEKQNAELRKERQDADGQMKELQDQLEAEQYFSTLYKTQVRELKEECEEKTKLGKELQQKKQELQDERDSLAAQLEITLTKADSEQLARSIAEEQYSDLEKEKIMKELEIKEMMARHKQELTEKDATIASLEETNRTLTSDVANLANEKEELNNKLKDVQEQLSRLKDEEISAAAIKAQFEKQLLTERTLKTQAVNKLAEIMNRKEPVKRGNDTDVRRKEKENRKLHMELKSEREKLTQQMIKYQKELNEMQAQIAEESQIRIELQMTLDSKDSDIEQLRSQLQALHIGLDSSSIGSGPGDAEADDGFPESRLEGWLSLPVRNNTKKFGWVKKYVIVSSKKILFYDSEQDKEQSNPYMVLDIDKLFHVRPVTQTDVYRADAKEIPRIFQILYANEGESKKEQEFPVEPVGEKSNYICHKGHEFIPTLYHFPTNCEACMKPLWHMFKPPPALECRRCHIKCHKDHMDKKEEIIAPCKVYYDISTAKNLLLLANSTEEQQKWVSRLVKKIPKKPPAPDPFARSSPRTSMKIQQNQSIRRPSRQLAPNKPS

[9] = biological target: Tyrosine-protein kinase JAK1 (Homo sapiens) (UniProt P23458); test: Inhibition of JAK1 (unknown origin) at 10 uM by single point assay
Sequence of Tyrosine-protein kinase JAK1 (Homo sapiens) (P23458 whole entry): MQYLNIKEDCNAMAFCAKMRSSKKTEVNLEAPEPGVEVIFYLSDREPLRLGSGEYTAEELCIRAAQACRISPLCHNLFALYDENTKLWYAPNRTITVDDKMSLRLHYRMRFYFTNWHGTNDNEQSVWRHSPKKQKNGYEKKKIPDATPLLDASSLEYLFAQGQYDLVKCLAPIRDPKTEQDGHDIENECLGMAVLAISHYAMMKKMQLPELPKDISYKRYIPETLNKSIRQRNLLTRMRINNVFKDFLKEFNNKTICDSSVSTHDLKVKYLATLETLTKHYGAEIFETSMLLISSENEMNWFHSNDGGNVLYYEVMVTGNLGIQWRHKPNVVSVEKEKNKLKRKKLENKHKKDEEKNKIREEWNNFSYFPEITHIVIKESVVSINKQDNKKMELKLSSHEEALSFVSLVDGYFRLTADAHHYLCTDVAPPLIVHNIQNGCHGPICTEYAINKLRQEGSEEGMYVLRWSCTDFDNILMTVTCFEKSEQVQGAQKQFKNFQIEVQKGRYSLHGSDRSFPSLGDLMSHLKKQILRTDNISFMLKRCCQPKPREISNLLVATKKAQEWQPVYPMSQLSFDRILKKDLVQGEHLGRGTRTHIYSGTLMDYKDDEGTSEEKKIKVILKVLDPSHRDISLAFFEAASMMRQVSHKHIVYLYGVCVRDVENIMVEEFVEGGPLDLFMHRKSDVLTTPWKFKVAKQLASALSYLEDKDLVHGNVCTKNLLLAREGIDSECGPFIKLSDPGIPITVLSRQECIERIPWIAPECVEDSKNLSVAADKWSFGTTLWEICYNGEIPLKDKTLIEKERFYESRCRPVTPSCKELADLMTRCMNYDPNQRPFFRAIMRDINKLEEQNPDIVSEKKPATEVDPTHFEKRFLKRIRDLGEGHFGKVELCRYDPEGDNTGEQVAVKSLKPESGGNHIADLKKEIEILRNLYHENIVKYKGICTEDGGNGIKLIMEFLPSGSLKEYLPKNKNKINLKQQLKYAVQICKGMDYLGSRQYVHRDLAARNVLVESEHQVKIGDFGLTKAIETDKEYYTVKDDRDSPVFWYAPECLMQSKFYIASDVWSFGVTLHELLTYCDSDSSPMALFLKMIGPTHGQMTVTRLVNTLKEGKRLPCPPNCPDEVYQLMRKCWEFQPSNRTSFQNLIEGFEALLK

[10] = biological target: T3, Dual specificity protein kinase TTK (Homo sapiens) (UniProt P33981); test: Inhibition of TTK (unknown origin) at 10 uM by single point assay
T3 sequence (whole entry): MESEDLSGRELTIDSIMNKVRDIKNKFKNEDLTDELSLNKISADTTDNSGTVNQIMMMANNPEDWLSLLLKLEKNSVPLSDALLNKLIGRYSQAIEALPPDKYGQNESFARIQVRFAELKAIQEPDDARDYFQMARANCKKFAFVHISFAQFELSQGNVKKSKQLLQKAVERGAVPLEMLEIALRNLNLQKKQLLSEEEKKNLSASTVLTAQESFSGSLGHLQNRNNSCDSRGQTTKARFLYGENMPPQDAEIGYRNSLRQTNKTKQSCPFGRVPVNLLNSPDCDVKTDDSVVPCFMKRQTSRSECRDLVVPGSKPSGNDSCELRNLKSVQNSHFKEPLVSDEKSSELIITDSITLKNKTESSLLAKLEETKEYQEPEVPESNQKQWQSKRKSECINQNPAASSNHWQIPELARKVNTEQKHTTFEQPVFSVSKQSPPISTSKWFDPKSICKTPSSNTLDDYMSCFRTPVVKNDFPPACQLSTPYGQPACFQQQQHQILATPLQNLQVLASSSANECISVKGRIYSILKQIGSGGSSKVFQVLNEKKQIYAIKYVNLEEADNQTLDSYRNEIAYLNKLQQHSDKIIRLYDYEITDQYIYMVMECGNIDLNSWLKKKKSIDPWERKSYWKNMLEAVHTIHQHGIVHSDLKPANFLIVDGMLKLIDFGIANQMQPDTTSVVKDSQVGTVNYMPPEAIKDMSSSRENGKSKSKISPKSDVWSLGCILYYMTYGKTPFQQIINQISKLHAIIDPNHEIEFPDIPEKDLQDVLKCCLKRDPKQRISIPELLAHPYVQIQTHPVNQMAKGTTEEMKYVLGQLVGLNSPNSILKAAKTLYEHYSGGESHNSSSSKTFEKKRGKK

[11] = Ratio of drug uptake in brain to plasma of mouse expressing mouse LRRK2 G2019S mutant at 30 mg/kg, po; format: ADME, organism-based; parameters: dose 30 mg/kg, route oral; conditions: read-out: BPR
Mus musculus = test: In vivo inhibition of mouse LRRK2 G2019S mutant phosphorylation at Ser935 expressed in mouse brain at 30 mg/kg, po measured after 3 hrs by ELISA; format: functional
Plasma = test: Plasma concentration in mouse expressing mouse LRRK2 G2019S mutant at 30 mg/kg, po; format: ADME, organism-based; parameters: dose 30 mg/kg, route oral; conditions: in vivo

SMILES | inhibition [1] [%] | inhibition [2] [%] | inhibition [3] [%] | inhibition [4] [%] | inhibition [5] [%] | inhibition [6] [%] | inhibition [7] [%] | inhibition [8] [%] | inhibition [9] [%] | inhibition [10] [%] | Kp [11] | inhibition in vivo at 30 mg/kg (Mus musculus) [%] | Cp (Plasma) [ng/mL]
C[C@@H](Nc1c(C#N)cnc2cc(-c3ccc(-n4ccoc4=O)cc3)ccc12)C1CC1 | 0 | 10 | 71 | -5 | 54 | 0 | 56 | 16 | 4 | 11 | – | – | –
CC(C)Nc1c(C#N)cnc2cc(-c3cnn(C)c3)ccc12 | – | – | – | – | – | – | – | – | – | – | 1.2 | 30 | 4.7
